This is an account of results in PubChem BioAssay (NCI).

What all share (test): inhibition of tumour cell growth, NCI panel, 48 h
Assay [1] deals with CAKI-1 renal.
The test system of assay [2] is NCI-H460 lung.
Assay [3] has as its system U251 CNS.
Assay [4] deals with HCT-116 colon.
In assay [5] the test system is MOLT-4 leukemia.
Assay [6] relates to HCC-2998 colon.
Assay [7] relates to SK-OV-3 ovarian.
Assay [8] concerns SF-539 CNS.

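Growth conditions: 96-well plates. Treatment: test compound, 48 hours, 5 concentrations. Analysis: linear interpolation between bracketing concentrations; unreached endpoints set to highest concentration. GI50 = concentration required for 50% inhibition of growth. TGI: total growth inhibition.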 Where only a bound is given, the exact number is not on record here.

In the case of `CCCCCCCC[C@@H](O)CC(=O)N[C@@H](CC(N)=O)C(=O)N[C@@H](CCC(N)=O)C(=O)N[C@@H](CC(=O)c1cc(C)cc(O)c1C(=O)c1c(O)cccc1O)CC(C)C`, the GI50 is 1510 nM in assay [1]; 3.29 µM in assay [2]; 265 nM in assay [3]; 303 nM in assay [4]; 308 nM in assay [5]; 403 nM in assay [6]. Further, the GI50 was 12.6 µM in assay [7] and 253 nM in assay [8]. Further, the TGI was greater than 100 µM in assay [1]; 18.3 µM in assay [2]; 2.33 µM in assay [3]; 1.78 µM in assay [4]; greater than 100 µM in assay [5]; 1.43 µM in assay [6]. Also, the values for the TGI in assay [7] and in assay [8] were greater than 100 µM and 0.783 µM, respectively.

As for `CC1CN1C(=O)NCCCCCCNC(=O)N1CC1C` (centres undefined), the TGI in assay [1] was greater than 100 µM; in assay [2], greater than 66.6 µM; in assay [3], greater than 100 µM; in assay [4], greater than 100 µM; in assay [5], greater than 100 µM; in assay [6], greater than 100 µM. Further, the values for the TGI in assay [7] and in assay [8] were greater than 100 µM and 98.2 µM, respectively.

As to `O=C(O)C(=Cc1ccc(-c2ccccc2)cc1)C(=O)O`, the TGI in assay [1] was found to be 30 µM; in assay [2], 35.7 µM; in assay [3], 25.9 µM; in assay [4], 24.7 µM; in assay [5] it was 53.6 µM; in assay [6] it was 21.9 µM. Moreover, the TGI in assay [7] was 41.2 µM; in assay [8], 19.3 µM.

In the case of `CCN(CC)C(c1ccc(N(C)C)cc1)C(c1ccc(N(C)C)cc1)N(CC)CC` (centres undefined), the TGI in assay [1], in assay [2], in assay [3], in assay [4], in assay [5] and in assay [6] was greater than 73 µM throughout. In addition, the TGI in assay [7] and in assay [8] was greater than 73 µM in each case.

For `Cc1ccc2c(c1)Sc1c(ccc3ccccc13)N2`, the GI50 was 15300 nM in assay [1]; 5.37 µM in assay [2]; 9310 nM in assay [3]; 8370 nM in assay [4]; 6820 nM in assay [5]; 98700 nM in assay [6]. Besides, the GI50 in assay [7] is greater than 100 µM; in assay [8], 20700 nM. In addition, the TGI in assay [1], in assay [2], in assay [3], in assay [4], in assay [5] and in assay [6] was greater than 100 µM each time. Besides, the TGI in assay [7] and in assay [8] was greater than 100 µM throughout.

Take `O=[N+]([O-])c1ccc(C=NC2CCCCC2)cc1`: the TGI in assay [1], in assay [2], in assay [3], in assay [4], in assay [5] and in assay [6] was greater than 100 µM in each case. In addition, the TGI in assay [7] and in assay [8] was greater than 100 µM throughout.

On to `O=C(CCc1cc(-c2ccccc2)nc(=S)[nH]1)N(Cc1ccccc1)Cc1ccccc1`, for which the TGI in assay [1], in assay [2], in assay [3], in assay [4], in assay [5] and in assay [6] was greater than 100 µM throughout. Further, the TGI in assay [7] and in assay [8] was greater than 100 µM in each case.

In the case of `Cc1cc(Cl)cc2c1NC(=O)C2(O)CC(=O)c1ccco1` (centres undefined), the TGI in assay [1] was greater than 100 µM; in assay [2], greater than 100 µM; in assay [3] it was greater than 100 µM; in assay [4], greater than 100 µM; in assay [5] it was 81.2 µM; in assay [6] it was greater than 100 µM. Also, the TGI in assay [7] and in assay [8] was greater than 100 µM in each case.

Take `COc1ccc2c(c1)[n+](=O)c(C(=O)C/C(=N/OCCCc1ccccc1)C(=O)NC13CC4CC(CC(C4)C1)C3)c(C)n2[O-]`: the TGI in assay [1], in assay [2], in assay [3], in assay [4], in assay [5] and in assay [6] was greater than 100 µM throughout. In addition, the TGI in assay [7] and in assay [8] was greater than 100 µM each time.

For `N#C/C(=C\c1ccc2ccccc2c1)c1ccccc1`, the TGI in assay [1] was 50 µM; in assay [2], 34 µM; in assay [3], 57.1 µM; in assay [4], greater than 100 µM; in assay [5] it was 94.5 µM; in assay [6], 87.9 µM. The results for the TGI in assay [7] and in assay [8] were 70.7 µM and 36.8 µM, respectively.

With `Cc1cc(N(CCC#N)CCC#N)ccc1/C=C1\N=C(c2cc([N+](=O)[O-])ccc2Cl)N(c2cccc(Cl)c2)C1=O`, the TGI in assay [1], in assay [2], in assay [3], in assay [4], in assay [5] and in assay [6] was greater than 100 µM each time. Besides, the TGI in assay [7] and in assay [8] was greater than 100 µM each time.

Turning to `CC1(C)OC2=C(CC1Br)C(=O)C(=O)c1ccccc12` (centres undefined), the GI50 is 1660 nM in assay [1]; 2.08 µM in assay [2]; 1870 nM in assay [3]; 1700 nM in assay [4]; 2270 nM in assay [5]; 1690 nM in assay [6]. Besides, the values for the GI50 in assay [7] and in assay [8] were 1.96 µM and 1820 nM, respectively. For the same compound, the TGI in assay [1] amounted to 3.15 µM; in assay [2], 3.96 µM; in assay [3], 3.87 µM; in assay [4], 3.41 µM; in assay [5] it was 5.26 µM; in assay [6] it was 3.12 µM. The TGI in assay [7] amounted to 3.47 µM; in assay [8], 3.37 µM.

Consider `CN(C)CCNC(=O)c1cccc2ccc(-c3ccncc3)nc12`, for which the TGI in assay [1] amounted to 5.21 µM; in assay [3], 8.75 µM; in assay [4], 4.71 µM; in assay [5], 1.37 µM; in assay [6] it was 10.2 µM; in assay [7] it was 6.95 µM. The compound further displayed a TGI in assay [8] of 9.64 µM.

For `COc1cc(Nc2nc3ccccc3nc2-c2cccs2)cc(OC)c1OC`, the TGI was greater than 100 µM in assay [2]; greater than 10 µM in assay [3]; greater than 100 µM in assay [4]; greater than 100 µM in assay [5]; greater than 100 µM in assay [6]; greater than 100 µM in assay [7]. Further, in assay [8], the TGI was greater than 100 µM.
